From patent US10272055B2, “Therapeutic compounds and methods” (Regents of the University of Minnesota, priority 2014, dated 2019) come the findings set out here.

Where “and” joins values, the source holds several entries; their conditions need not be identical. Equal values may be shown once. Entries after “also recorded” stand apart in the source; their conditions may differ.

For orientation: IC50 means the point on the concentration scale where inhibition reaches its midpoint.

Data set [1] concerns MDA-MB-231. Put plainly: ROS production, DCFDA flow cytometry, MDA-MB-231. Format: cell-based. Conditions: MDA-MB-231, 20 uM HBB. As for the experimental part:
FIG. 33 illustrates that HBB induces reactive oxygen species (ROS) production in MCF7 and MDA-MB-231 lines. Cells in log phase growth in complete media were trypsinized and resuspended in complete media containing 20 uM DCFDA. After incubation at 37° C. for 30 minutes, cells were treated with 20 uM HBB or DMSO for 2.5 hours and analyzed by flow cytometer, monitoring fluorescence at 525 nm. Results are represented as histograms of cell count vs fluorescence intensity.
In general terms: Flow cytometry measures light scatter and fluorescence of single cells or particles in a stream.

For another data set, the system named is MCF-7. Briefly: HBB plus paclitaxel combination, MTT, Chou-Talalay analysis. Format: cell-based. Conditions: MCF-7, HBB vs paclitaxel = 800:1, 24 hours. Here is the method: Cells were seeded into 96-well plates at 3,000 cells/well and grown over night. The cells were then treated with different doses of HBB, paclitaxel and combination of the two agents at a constant ratio (HBB vs paclitaxel=800:1). The treatments were conducted for each condition in quadruplicate. […] Combined dose-response curves were fitted to Chou-Talalay lines, and Chou-Talalay combination indices (CIs) were calculated for each fraction affected (Fa) using the equation CI=(D1/Dx1)+(D2/Dx2)+(D1)(D2)/[(Dx1)(Dx2)], where Dx1 and Dx2 are the HBB and paclitaxel doses, respectively, that are required for achieving a particular Fa, and D1 and D2 are the doses of the two agents (combined treatment) required for achieving the same Fa. For each Fa, CI values of 0.8 and 1.2 are cutoffs for synergy and antagonism, respectively (See FIG. 42).

In the next data set the test system is MDA-MB-231 xenograft. Put plainly: MDA-MB-231 xenograft in nude mice. Conditions: HBB 4 mg/kg ip daily vs PBS/vehicle. Format: in vivo. Here is the method:
FIG. 3A. MCF-7 xenograft with 3×10^6 cells in the 2nd mammary fat pad on day 0. HBB (4 mg/kg ip daily) (ν) or PBS (ρ) treatment began on day 1. * indicates P<0.05. FIG. 3B. MDAMB-231 xenograft with 1×10^6 cells in the 2nd mammary fat pad on day 0. HBB (4 mg/kg ip daily) (ν) or PBS (ρ) treatment began on day 1. N=20 mice per arm for each study; error bars are SEM.
FIG. 44A. Nude mice were inoculated with 3×10^6 MCF-7 cells and treated with vehicle (Δ) HBB at the MTD (4 mg/kg/day ip) (▪). (* indicates P<0.05). Error bars are SEM. […] The dose limiting toxicity was weight loss. At the MTD there was a well-tolerated 4% reduction of weight at 42 days (P<0.0001; data not shown). FIG. 44B. Nude mice were inoculated with 1×10^6MDA-MB-231 cells and treated with HBB at the MTD (4 mg/kg/day ip).

The target in another data set is CYP3A4 epoxygenase (Homo sapiens, UniProt P08684). Briefly: CYP3A4 Supersome epoxygenase assay: EET synthesis from arachidonic acid, LC-ESI-MS/MS. As for the experimental part: Measurements are reported as percentage of control reactions performed with vehicle but no compound. A ^13C-EET recovery standard was used to control for recovery of EETs from extractions. […] EET measurements in these Supersome experiments are expressed as percentage of control reactions. Absolute EET measurements are determined by subtraction of regioisomer values in a baseline reaction lacking NADPH. Measurements were performed in triplicate and values are expressed as the mean±SD.
After the reaction, EETs were then extracted with 1 mL dichloromethane and reconstituted in methanol and analyzed by LC-ESI-MS/MS.

Data set [2] can be described thus: HBB concentration after ip administration, MCF-7 model. Set-up: species or system mice. Conditions: nude, mouse, in vivo, intraperitoneal, 4 mg/kg/day ip, read-out: Concentration of HBB 1 hour following ip administration. As for the experimental part: Concentration of HBB 1 hour following ip administration was 0.527 uM as measured in the MCF-7 model. HBB was administered ip at 4 mg/kg/day in both models, which is the MTD for that dose, route and schedule.

A further data set concerns AMPK. Briefly: AMPK phosphorylation Western blot in MCF7. Format: cell-based. Here is the method:
Western blotting analysis was performed in triplicate.
Cells were plated in complete media in the presence of serum (10% FBS) and cultured at 37° C. with 5% CO2 and treated with biguanides for 6 hours before harvesting. Total protein was extracted and analyzed by Western-blotting with GAPDH as an internal control.
Cells were plated in complete media in the presence of serum (10% FBS) and cultured at 37° C. with 5% CO2 and treated with 14,15-EET or EtOH control for 24 hours before harvesting. Total protein was extracted and analyzed by Western-blotting with GAPDH as an internal control.
Background: In western blotting, separated proteins are transferred to a membrane and probed.

Data set [3] deals with MDA-MB-231. Briefly: Cell cycle analysis by flow cytometry, MDA-MB-231. Format: cell-based. Conditions: MDA-MB-231, HBB 20 uM, 6 hours. As for the experimental part:
Cells in log phase growth treated with HBB (20 uM) or DMSO for 6 hours were trypsinized and fixed in 70% ethanol at 4° C. overnight. The cells were washed with cold PBS and resuspended in Nicoletti buffer (50 μg/ml propidium iodide, 0.1% Triton X-100, 0.1% sodium citrate, pH 7.4, and 1 mg/ml RNase). The samples were then analyzed by flow cytometry (BD Biosciences), and data were analyzed using FlowJo software (Tree Star). Representative profile are shown.

The subject of data set [4] is MDA-MB-231. Put plainly: MTT growth assay, MDA-MB-231 line. Format: cell-based. Conditions: MTT assay at 24 hours, 10% FBS. As for the experimental part: FIG. 30 illustrates HBB inhibits proliferation of MCF7 and MDA-MB-231 lines. Cells were plated in complete media in the presence of serum (10% FBS) and cultured at 37° C. with 5% CO2 and treated with HBB or DMSO vehicle. Growth was measured at 24 hours by MTT assay. Results were converted to percent growth of control and represented as mean±S.E. (n=8).
For orientation: Tetrazolium assays rely on reduction of a dye to a coloured formazan, in cell work by metabolically active cells.

In the next data set the test system is CD31. Put plainly: Angiogenesis by CD31 staining, MCF-7 xenograft tumors. Conditions: MCF-7 model, HBB 4 mg/kg/day ip vs PBS. Format: in vivo, mice. Here is the method: Xenogaft tumors from the MCF-7 and MDA-MB-231 models were tested for inhibition of angiogenesis by HBB using CD31 staining.
The samples were cryosectioned at 6 um and fixed with chilled 100% acetone for 10 minutes. Samples were blocked with 3% donkey serum in PBS for 30 minutes at 37 C.
The antibody used to stain CD-31 was from BD Pharmingen PE Rat anti Mouse CD31, catalog number 553373. It was used at a dilution of 1:50 in blocking buffer for 1 hour at 37 C.
The samples were then stained for 10 minutes with DAPI at a concentration of 1:2000, from Life Technologies, catalog number D1306.
Each sample was imaged in 4-5 areas. There were 3 samples per condition, PBS vs HBB.

Sequence of CYP3A4 epoxygenase (P08684 whole entry): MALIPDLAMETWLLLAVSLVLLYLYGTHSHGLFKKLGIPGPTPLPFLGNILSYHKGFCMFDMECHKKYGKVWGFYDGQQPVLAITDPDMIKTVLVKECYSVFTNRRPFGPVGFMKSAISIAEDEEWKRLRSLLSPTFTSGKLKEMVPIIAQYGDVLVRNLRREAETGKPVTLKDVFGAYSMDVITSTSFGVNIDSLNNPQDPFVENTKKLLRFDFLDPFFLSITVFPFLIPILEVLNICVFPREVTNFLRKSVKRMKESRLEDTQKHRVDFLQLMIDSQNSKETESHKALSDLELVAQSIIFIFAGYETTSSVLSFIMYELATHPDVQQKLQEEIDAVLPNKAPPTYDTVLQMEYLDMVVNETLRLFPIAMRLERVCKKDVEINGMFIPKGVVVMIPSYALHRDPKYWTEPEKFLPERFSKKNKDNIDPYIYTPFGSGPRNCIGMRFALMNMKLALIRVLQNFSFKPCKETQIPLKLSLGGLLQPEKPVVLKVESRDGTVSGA

With `CCCCCCNC(=N)NC(=N)NCc1ccccc1` [HBB, N1-hexyl-N5-benzyl biguanide], the “ROS production relative to DMSO” value in the data set with MDA-MB-231 [1] is given as “induced significant ROS production”. Besides, the “combination index plot, HBB with Taxol” value in the data set with MCF-7 is given as “synergy”. In addition, the “tumor growth, MDA-MB-231 xenograft” value with MDA-MB-231 xenograft was “tumor growth wasn't inhibited; also recorded: no significant difference between the HBB and vehicle growth curves”. Further, the IC50 at CYP3A4 epoxygenase (IC50, inhibition of CYP3A4 epoxygenase) stood at 110 µM; in the data set with MDA-MB-231 [4], 22.5 µM. For the same compound, at CYP3A4 epoxygenase (vs metformin), the “fold more potent than metformin, CYP3A4 epoxygenase” value is 50 fold and ~40 fold. Also, in data set [2], the concentration at 1 h stood at 527 nM. In addition, in the data set with AMPK (MCF7, 6 hours, metformin, buformin, phenformin 1 mM, HBB 20 uM), the “AMPK phosphorylation relative to control” value is on record as “more potently activates AMPK; also recorded: increased phosphorylation of AMPK”. In addition, the “fold more potent than metformin, activation of AMPK phosphorylation” value with AMPK (vs metformin) is listed as about 50 fold. Also, the cell cycle arrest result with MDA-MB-231 [3] is “induces G0/G1 and G2/M cell cycle arrest”. In addition, the “angiogenesis (CD31 staining)” value with CD31 is given as “inhibited angiogenesis in both models”.
